Measurements taken from PubChem BioAssay AID1963848 (Molecular Pharmacology Branch, DTP, NCI, 2024).
Where “and” joins values, the source holds several entries; their conditions need not be identical. Equal values may be shown once.

System: 379773-124-R-J2-PDC spheroid viability
Experiment: Anticancer human tumor 379773-124-R-J2-PDC patient-derived endometrial carcinoma cell line growth inhibition [POLQ]
Settings: spheroids with HUVEC and MSC; for viability, T/C: stronger effect = lower value
Procedure: Multicellular complex tumor spheroid response to Polymerase (POL) inhibitors (novobiocin, ART-558, RP6685) in combination with a variety of drugs and investigational agents in selected tumor cell lines
The POL inhibitors (novobiocin, ART-558, and RP6685) were evaluated both individually and in combination with standard of care and investigational anticancer small molecules within a complex spheroid model of solid tumors. . Complex spheroids include a stromal component modeled by human endothelial cells (HUVEC) and fibroblasts modeled by human mesenchymal stem cells (MSCs). The concentration ranges selected for each drug and investigational agent were based upon clinically achievable concentrations if the clinical Cmax of the agent was known.
Compounds. The drugs and investigational agents: novobiocin (NSC847541), ART-558 (NSC835418), RP-6685 (NSC848927), peposertib (NSC802822), ceralasertib (NSC780249), elimusertib (NSC800525), camonsertib (NSC841442), AZD-1390 (NSC803789), olaparib (NSC753686), talazoparib (NSC767125), rucaparib (NSC756644), sotorasib (NSC818433), MRTX-1133 (NSC836407), SN-38 (NSC673596), topotecan (NSC609699), epotoside (NSC141540), doxorubicin (NSC123127), gemcitabine (NSC613327), 5-fluorouracil (NSC19893), paclitaxel (NSC125973), vemurafenib (NSC761431), MSA-2 (NSC828583), SN-011 (NSC837082), adavosertib (NSC754352), prexasertib (NSC758257), carboplatin (NSC241240) and oxaliplatin (NSC266046), were obtained from the National Cancer Institute (NCI) Developmental Therapeutics Program Chemical Repository (21). The FDA-approved anticancer drug set is available from the Developmental Therapeutics Program at https://dtp.cancer.gov/organization/dscb/obtaining/. […] The stock solutions were prepared in dimethyl sulfoxide (DMSO, Sigma-Aldrich, St. Louis, MO, cat. D2650), except for the platinum compounds which were prepared in saline (Quality Biological, Gaithersburg, MD, cat. 114-055-101), at 800-fold the tested concentration and stored at -70 degrees C prior to their use. All drugs and investigational agents were tested over a range starting from a high concentration at or near the clinical Cmax and decreasing in half-log increments. If the clinical Cmax for an agent had not been determined, the highest concentration tested was 10 microM, except for SN-38, which was tested at a high concentration of 1 microM.
Cell Culture. All cells were maintained in an incubator at 37 degrees C and 5% CO2 with 95% humidity. The PDC lines were cultured according to standard operating procedures established by the NCI PDMR (https://pdmr.cancer.gov). Table 3 of the manuscript, lists the cell lines along with the number of the three cell types plated to form the mct-spheroids and media for tumor cell growth. After thawing, all PDC lines, except 997537-175-T-J1-PDC and 415267-285-R-J2-PDC, were cultured in Matrigel-coated flasks prepared with a working solution of 1X Ham's F-12 nutrient mix, without supplementation (Thermo Fisher Scientific, cat. 11765054), 100 U/mL penicillin-streptomycin (Thermo Fisher Scientific, cat. 15140122), and 2.5% Matrigel (Corning Inc., Corning, NY, cat. 354248) for the first three passages. The two PDC lines 997537-175-T-J1-PDC and 415267-285-R-J2-PDC were cultured on uncoated flasks. The 857933-349-R-J2-PDC line was cultured in 6C/Colon 1B media containing advanced DMEM/F-12 (Thermo Fisher Scientific, cat. 12634028), 10 mM HEPES (Thermo Fisher Scientific, cat. 15630080), 1X GlutaMAX supplement (Thermo Fisher Scientific, cat. 35050061), 0.1 mg/mL primocin (InvivoGen, San Diego, CA, cat. ant-pm-2), 10% defined fetal bovine serum, heat inactivated (HyClone Laboratories Inc., Logan, UT, cat. SH30070.03HI), 50% L-WRN conditioned media (ATCC, cat. CRL-3276), 1.25 mM N-Acetyl-L-cysteine (Sigma-Aldrich, cat. A9165), 10 mM nicotinamide (Sigma-Aldrich, cat. N0636), 1X B-27 supplement (Thermo Fisher Scientific, cat. 17504044), 1X N-2 supplement (Thermo Fisher Scientific, cat. […]
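Further: spheroids exposed to drugs for seven days before readout.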
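Wherever viability, T/C is given: percent viability relative to DMSO vehicle control taken as 100%.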

COc1cc2cc(C(=O)CCC(=O)O)sc2cc1OC
viability, T/C (compound 0.0316 µM): 89.3% and 91.6% (2×)
viability, T/C (compound 0.1 µM): 85.4% and 96.8% and 107%
viability, T/C (compound 0.316 µM): 85.8% and 90.2% and 80.9%
viability, T/C (compound 1 µM): 94.6% and 96.7% and 94%
viability, T/C (compound 3.16 µM): 105% and 95.3% and 92.9%
viability, T/C (compound 10 µM): 91.6% and 79.1% and 73.2%
IC50 (curve of compound): > 10000 nM

COc1ccc([C@@H](O)c2cc(-c3ncnc4cc(N5CCOCC5)ccc34)c(F)cc2Cl)nn1
viability, T/C (compound 0.0316 µM): 92.5% and 98.9% and 94.2%
viability, T/C (compound 0.1 µM): 91.3% and 93.2% and 82.2%
viability, T/C (compound 0.316 µM): 79.4% and 93.5% and 84.7%
viability, T/C (compound 1 µM): 99.3% and 110% and 87.4%
viability, T/C (compound 3.16 µM): 67.8% and 76.8% and 86.3%
viability, T/C (compound 10 µM): 37.9% and 43.7% and 38.1%
IC50 (curve of compound): 6280 nM and 8030 nM and 7520 nM

O=C(Nc1ccc(O)c(NS(=O)(=O)c2ccc(F)cc2)c1)c1ccc(-c2ccccc2)cc1
viability, T/C (compound 0.0316 µM): 98.6% and 86.4% and 88.8%
viability, T/C (compound 0.1 µM): 96% and 86.4% and 90.7%
viability, T/C (compound 0.316 µM): 97.9% and 93.9% and 76.7%
viability, T/C (compound 1 µM): 105% and 82.9% and 109%
viability, T/C (compound 3.16 µM): 91.6% and 97.1% and 84.3%
viability, T/C (compound 10 µM): 77.9% and 78.2% and 65.2%
IC50 (curve of compound): > 10000 nM

COc1cc(C2c3cc4c(cc3C(OC3OC5COC(C)OC5C(O)C3O)C3COC(=O)C23)OCO4)cc(OC)c1O (stereo not drawn) + COC1C(OC(N)=O)C(O)C(Oc2ccc3c(O)c(NC(=O)c4ccc(O)c(CC=C(C)C)c4)c(=O)oc3c2C)OC1(C)C
IC50 (curve of first compound, second compound 0.0316 µM): 1190 nM
IC50 (curve of first compound, second compound 0.1 µM): 1510 nM
IC50 (curve of first compound, second compound 0.316 µM): 1490 nM
IC50 (curve of first compound, second compound 1 µM): 1370 nM
IC50 (curve of first compound, second compound 3.16 µM): 1370 nM
IC50 (curve of first compound, second compound 10 µM): 1190 nM
viability, T/C (second compound 0.0316 µM, first compound 0.0316 µM): 97.5%
viability, T/C (second compound 0.0316 µM, first compound 0.1 µM): 82.6%
viability, T/C (second compound 0.0316 µM, first compound 0.316 µM): 86.2%
viability, T/C (second compound 0.0316 µM, first compound 1 µM): 56.9%
viability, T/C (second compound 0.0316 µM, first compound 3.16 µM): 13.8%
viability, T/C (second compound 0.0316 µM, first compound 10 µM): 9.47%
viability, T/C (second compound 0.1 µM, first compound 0.0316 µM): 95.5%
viability, T/C (second compound 0.1 µM, first compound 0.1 µM): 80.6%
viability, T/C (second compound 0.1 µM, first compound 0.316 µM): 80%
viability, T/C (second compound 0.1 µM, first compound 1 µM): 70.5%
viability, T/C (second compound 0.1 µM, first compound 3.16 µM): 13%
viability, T/C (second compound 0.1 µM, first compound 10 µM): 10.2%
viability, T/C (second compound 0.316 µM, first compound 0.0316 µM): 95.8%
viability, T/C (second compound 0.316 µM, first compound 0.1 µM): 80.9%
viability, T/C (second compound 0.316 µM, first compound 0.316 µM): 81.3%
viability, T/C (second compound 0.316 µM, first compound 1 µM): 70.5%
viability, T/C (second compound 0.316 µM, first compound 3.16 µM): 11.1%
viability, T/C (second compound 0.316 µM, first compound 10 µM): 9.75%
viability, T/C (second compound 1 µM, first compound 0.0316 µM): 93.1%
viability, T/C (second compound 1 µM, first compound 0.1 µM): 94.6%
viability, T/C (second compound 1 µM, first compound 0.316 µM): 81.6%
viability, T/C (second compound 1 µM, first compound 1 µM): 64.8%
viability, T/C (second compound 1 µM, first compound 3.16 µM): 12.2%
viability, T/C (second compound 1 µM, first compound 10 µM): 9.19%
viability, T/C (second compound 3.16 µM, first compound 0.0316 µM): 76.1%
viability, T/C (second compound 3.16 µM, first compound 0.1 µM): 84.7%
viability, T/C (second compound 3.16 µM, first compound 0.316 µM): 83%
viability, T/C (second compound 3.16 µM, first compound 1 µM): 64%
viability, T/C (second compound 3.16 µM, first compound 3.16 µM): 12.9%
viability, T/C (second compound 3.16 µM, first compound 10 µM): 8.54%
viability, T/C (second compound 10 µM, first compound 0.0316 µM): 85.2%
viability, T/C (second compound 10 µM, first compound 0.1 µM): 84.4%
viability, T/C (second compound 10 µM, first compound 0.316 µM): 89.3%
viability, T/C (second compound 10 µM, first compound 1 µM): 56.3%
viability, T/C (second compound 10 µM, first compound 3.16 µM): 14.1%
viability, T/C (second compound 10 µM, first compound 10 µM): 9.29%
